From paper doi:10.1101/2023.11.24.568596v1 (biorxiv, 2023)
One block for each compound: values may come before it.

What was measured:
Settings in all cases: binder
Erk3 = Erk3 (Homo sapiens, UniProt Q16659)
MST1 = target: T1, MST1 (Homo sapiens, UniProt Q13043)
T1 sequence (Q13043 1-487): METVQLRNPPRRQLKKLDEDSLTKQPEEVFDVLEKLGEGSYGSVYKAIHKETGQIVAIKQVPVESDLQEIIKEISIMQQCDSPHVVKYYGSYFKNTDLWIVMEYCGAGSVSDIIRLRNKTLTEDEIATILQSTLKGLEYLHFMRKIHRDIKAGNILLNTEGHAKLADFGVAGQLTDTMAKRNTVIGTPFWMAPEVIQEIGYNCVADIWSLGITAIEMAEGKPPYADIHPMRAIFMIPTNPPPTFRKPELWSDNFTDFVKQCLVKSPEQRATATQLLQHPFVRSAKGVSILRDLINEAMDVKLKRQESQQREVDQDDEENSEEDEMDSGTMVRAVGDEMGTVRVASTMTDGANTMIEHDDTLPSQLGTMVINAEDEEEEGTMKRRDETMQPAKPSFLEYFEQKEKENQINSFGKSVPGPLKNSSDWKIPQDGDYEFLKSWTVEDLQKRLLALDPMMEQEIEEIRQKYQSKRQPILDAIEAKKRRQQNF

MST3 = MST3 (Homo sapiens, UniProt Q9Y6E0)
PAK1 = PAK1 (Homo sapiens, UniProt Q13153)
MYT1 = target: T2, MYT1 (Homo sapiens, UniProt Q99640)
T2 sequence (Q99640 1-499): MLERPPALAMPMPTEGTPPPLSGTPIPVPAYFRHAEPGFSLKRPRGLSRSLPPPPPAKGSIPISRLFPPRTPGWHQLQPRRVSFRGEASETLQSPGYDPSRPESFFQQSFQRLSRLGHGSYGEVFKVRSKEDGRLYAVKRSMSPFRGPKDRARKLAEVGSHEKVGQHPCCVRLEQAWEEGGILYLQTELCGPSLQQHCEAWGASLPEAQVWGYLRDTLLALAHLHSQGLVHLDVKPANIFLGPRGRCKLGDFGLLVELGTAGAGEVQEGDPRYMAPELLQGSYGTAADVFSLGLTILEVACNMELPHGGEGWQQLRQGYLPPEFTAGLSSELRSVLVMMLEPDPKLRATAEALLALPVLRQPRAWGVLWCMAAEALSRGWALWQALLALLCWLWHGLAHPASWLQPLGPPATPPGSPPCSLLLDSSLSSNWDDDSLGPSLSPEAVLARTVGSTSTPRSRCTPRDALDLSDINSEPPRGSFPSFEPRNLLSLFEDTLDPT

EphB1 = target: T3, EphB1 (Homo sapiens, UniProt P54762)
T3 sequence (P54762 1-984): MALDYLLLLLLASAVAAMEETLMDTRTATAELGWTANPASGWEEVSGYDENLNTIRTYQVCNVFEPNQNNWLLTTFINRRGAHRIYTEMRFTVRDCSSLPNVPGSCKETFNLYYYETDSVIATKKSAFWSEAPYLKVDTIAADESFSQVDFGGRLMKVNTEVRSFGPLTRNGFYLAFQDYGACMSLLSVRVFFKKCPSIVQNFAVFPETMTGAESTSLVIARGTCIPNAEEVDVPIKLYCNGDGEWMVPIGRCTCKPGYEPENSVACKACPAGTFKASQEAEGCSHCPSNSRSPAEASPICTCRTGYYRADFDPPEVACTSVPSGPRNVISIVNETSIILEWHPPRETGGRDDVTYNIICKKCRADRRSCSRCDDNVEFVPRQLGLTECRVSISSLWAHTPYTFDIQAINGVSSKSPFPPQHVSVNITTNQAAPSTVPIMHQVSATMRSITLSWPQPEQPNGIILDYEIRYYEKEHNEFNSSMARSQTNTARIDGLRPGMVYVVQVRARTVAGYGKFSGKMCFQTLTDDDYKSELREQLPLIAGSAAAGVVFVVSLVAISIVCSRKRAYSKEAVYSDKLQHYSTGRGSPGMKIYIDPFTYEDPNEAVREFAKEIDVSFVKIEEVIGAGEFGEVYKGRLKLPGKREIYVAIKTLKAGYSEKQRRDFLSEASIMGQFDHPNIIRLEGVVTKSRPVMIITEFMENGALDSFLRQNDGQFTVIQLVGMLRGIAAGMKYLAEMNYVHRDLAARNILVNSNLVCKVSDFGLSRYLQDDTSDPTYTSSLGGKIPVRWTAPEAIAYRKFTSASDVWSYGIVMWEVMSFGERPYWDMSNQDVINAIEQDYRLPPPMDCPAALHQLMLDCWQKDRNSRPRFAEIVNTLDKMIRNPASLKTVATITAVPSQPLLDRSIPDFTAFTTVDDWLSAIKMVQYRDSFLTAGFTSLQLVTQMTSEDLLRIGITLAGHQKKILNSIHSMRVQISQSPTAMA

MAP2K7 = target: T4, MAP2K7 (Homo sapiens, UniProt O14733)
T4 sequence (O14733 1-419): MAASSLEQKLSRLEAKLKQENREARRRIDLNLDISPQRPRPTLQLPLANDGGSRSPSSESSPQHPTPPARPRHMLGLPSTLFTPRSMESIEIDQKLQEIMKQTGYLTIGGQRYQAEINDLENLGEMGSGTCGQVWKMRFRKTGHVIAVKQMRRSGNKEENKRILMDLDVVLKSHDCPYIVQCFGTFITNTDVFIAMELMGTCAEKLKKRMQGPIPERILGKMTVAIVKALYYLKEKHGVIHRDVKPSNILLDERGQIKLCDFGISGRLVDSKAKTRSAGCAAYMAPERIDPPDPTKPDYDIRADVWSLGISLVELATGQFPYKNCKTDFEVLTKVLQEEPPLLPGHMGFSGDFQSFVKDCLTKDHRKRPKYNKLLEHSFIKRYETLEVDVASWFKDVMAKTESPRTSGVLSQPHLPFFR

Chain of PAK1 (Q13153 whole entry): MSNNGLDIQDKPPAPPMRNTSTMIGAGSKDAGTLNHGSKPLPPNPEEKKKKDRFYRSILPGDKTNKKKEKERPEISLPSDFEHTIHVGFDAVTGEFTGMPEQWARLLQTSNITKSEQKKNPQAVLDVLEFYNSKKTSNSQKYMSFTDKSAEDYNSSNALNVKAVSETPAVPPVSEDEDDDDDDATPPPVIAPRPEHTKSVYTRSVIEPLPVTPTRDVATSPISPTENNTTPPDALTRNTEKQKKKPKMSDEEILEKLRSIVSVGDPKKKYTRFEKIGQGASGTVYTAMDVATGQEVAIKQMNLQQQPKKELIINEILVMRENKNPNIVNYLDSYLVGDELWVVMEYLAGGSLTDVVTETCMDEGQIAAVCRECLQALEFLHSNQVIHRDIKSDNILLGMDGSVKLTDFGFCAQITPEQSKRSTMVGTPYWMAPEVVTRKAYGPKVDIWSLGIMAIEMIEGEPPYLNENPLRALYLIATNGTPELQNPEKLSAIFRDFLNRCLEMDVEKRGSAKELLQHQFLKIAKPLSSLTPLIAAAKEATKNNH
Chain of MST3 (Q9Y6E0 whole entry): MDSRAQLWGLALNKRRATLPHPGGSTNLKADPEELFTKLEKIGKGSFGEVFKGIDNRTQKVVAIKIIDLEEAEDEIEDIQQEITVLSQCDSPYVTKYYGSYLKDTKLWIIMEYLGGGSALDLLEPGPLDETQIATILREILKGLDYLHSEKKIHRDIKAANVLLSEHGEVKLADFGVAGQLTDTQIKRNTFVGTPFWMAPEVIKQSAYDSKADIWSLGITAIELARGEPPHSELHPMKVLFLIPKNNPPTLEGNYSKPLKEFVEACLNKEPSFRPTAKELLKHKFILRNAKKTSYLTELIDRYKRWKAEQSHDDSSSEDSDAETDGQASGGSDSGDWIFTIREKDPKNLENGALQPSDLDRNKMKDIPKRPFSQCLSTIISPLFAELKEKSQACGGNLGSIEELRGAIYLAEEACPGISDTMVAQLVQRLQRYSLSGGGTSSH
Chain of Erk3 (Q16659 whole entry): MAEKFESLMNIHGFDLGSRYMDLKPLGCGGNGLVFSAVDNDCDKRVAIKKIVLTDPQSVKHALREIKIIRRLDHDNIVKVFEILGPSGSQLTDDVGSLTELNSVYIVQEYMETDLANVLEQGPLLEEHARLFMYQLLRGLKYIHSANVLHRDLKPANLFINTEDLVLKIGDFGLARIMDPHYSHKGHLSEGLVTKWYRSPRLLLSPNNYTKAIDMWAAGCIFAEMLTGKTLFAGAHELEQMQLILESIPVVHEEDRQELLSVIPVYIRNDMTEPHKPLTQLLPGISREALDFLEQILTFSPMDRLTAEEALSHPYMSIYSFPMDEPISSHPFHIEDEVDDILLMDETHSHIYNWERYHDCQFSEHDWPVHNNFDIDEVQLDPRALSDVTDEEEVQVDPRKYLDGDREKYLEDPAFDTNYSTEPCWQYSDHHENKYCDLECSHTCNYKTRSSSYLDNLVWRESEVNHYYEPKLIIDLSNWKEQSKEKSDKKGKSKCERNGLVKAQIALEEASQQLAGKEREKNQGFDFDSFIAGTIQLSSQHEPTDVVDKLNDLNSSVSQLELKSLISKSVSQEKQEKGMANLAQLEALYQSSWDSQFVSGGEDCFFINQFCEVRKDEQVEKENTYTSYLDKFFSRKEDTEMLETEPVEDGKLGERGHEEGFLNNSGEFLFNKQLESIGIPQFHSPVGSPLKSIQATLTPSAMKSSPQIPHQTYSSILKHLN

ΔTm MRLW5 (20) (Erk3): 0.5 °C | dTm MST1 (MST1): 5.6 °C | dTm MST3 (MST3): 11.7 °C | dTm PAK1 (PAK1): 6.5 °C
Compound: CNc1ncc2cc(-c3ccc(-c4cccc(C)n4)cc3Cl)c(=O)n(CCCCN)c2n1 [compound 20, MRLW5]

ΔTm 32 (MYT1): -2.6 °C
Compound: Cc1cccc(-c2ccc(-c3cc4cnc(Nc5ccc(C)c(O)c5)nc4n(CCCCN)c3=O)c(Cl)c2)n1 [compound 32, 8-(4-Aminobutyl)-6-(2-chloro-4-(6-methylpyridin-2-yl)phenyl)-2-((3-hydroxy-4-methylphenyl)amino)pyrido[2,3-d]pyrimidin-7(8H)-one]

ΔTm MR24 (24) (EphB1): 0.2 °C | ΔTm MR24 (24) (Erk3): 0.4 °C | ΔTm MR24 (24) (MAP2K7): 3.0 °C
Compound: Cc1cccc(-c2ccc(-c3cc4cnc(NC(CO)CO)nc4n(CCCCN)c3=O)c(Cl)c2)n1 [compound 24, 8-(4-Aminobutyl)-6-(2-chloro-4-(6-methylpyridin-2-yl)phenyl)-2-((1,3-dihydroxypropan-2-yl)amino)pyrido[2,3-d]pyrimidin-7(8H)-one]

ΔTm 23 (EphB1): 3.4 °C | ΔTm 23 (MAP2K7): 7.1 °C | dTm MST1 (MST1): 7.9 °C | dTm MST3 (MST3): 10.8 °C | dTm PAK1 (PAK1): 8.4 °C
Compound: CNc1ncc2cc(-c3ccc(-c4cccc(C)n4)cc3Cl)c(=O)n(C[C@H]3CC[C@H](N)CC3)c2n1 [compound 23, 23]

ΔTm 25 (EphB1): 3.0 °C | ΔTm 25 (Erk3): 1.0 °C | ΔTm 25 (MAP2K7): 6.7 °C
Compound: Cc1cccc(-c2ccc(-c3cc4cnc(NCCCc5ccc(N)cc5)nc4n(CCCCN)c3=O)c(Cl)c2)n1 [compound 25, 8-(4-Aminobutyl)-2-((3-(4-aminophenyl)propyl)amino)-6-(2-chloro-4-(6-methylpyridin-2-yl)phenyl)pyrido[2,3-d]pyrimidin-7(8H)-one]

ΔTm 31 (MYT1): -2.3 °C
Compound: Cc1cccc(-c2ccc(-c3cc4cnc(Nc5ccc(O)cc5)nc4n(CCCCN)c3=O)c(Cl)c2)n1 [compound 31, 8-(4-Aminobutyl)-6-(2-chloro-4-(6-methylpyridin-2-yl)phenyl)-2-((4-hydroxyphenyl)amino) pyrido[2,3-d]pyrimidin-7(8H)-one]

ΔTm MR30 (27) (MYT1): -2.8 °C
Compound: Cc1cccc(-c2ccc(-c3cc4cnc(NCCCN5CCCC5=O)nc4n(CCCCN)c3=O)c(Cl)c2)n1 [compound 27, MR30]

ΔTm 28 (MYT1): -4.3 °C
Compound: Cc1cccc(-c2ccc(-c3cc4cnc(Nc5cc(C(F)(F)F)ccc5C)nc4n(CCCCN)c3=O)c(Cl)c2)n1 [compound 28, 8-(4-Aminobutyl)-6-(2-chloro-4-(6-methylpyridin-2-yl)phenyl)-2-((2-methyl-5-(trifluoromethyl)phenyl)amino)pyrido[2,3-d]pyrimidin-7(8H)-one]

ΔTm MR26 (26) (EphB1): 3.7 °C | ΔTm MR26 (26) (Erk3): 0.4 °C | ΔTm MR26 (26) (MAP2K7): 3.1 °C
Compound: Cc1cccc(-c2ccc(-c3cc4cnc(NCCCN5CCOCC5)nc4n(CCCCN)c3=O)c(Cl)c2)n1 [compound 26, MR26]

ΔTm 30 (MYT1): -2.8 °C
Compound: Cc1cccc(-c2ccc(-c3cc4cnc(Nc5ccc(CCCO)cc5)nc4n(CCCCN)c3=O)c(Cl)c2)n1 [compound 30, 8-(4-Aminobutyl)-6-(2-chloro-4-(6-methylpyridin-2-yl)phenyl)-2-((4-(3-hydroxypropyl)phenyl)amino)pyrido[2,3-d]pyrimidin-7(8H)-one]

ΔTm 22 (EphB1): 2.6 °C | ΔTm 22 (MAP2K7): 4.3 °C | dTm MST1 (MST1): 6.0 °C | dTm MST3 (MST3): 10.5 °C | dTm PAK1 (PAK1): 8.6 °C
Compound: CNc1ncc2cc(-c3ccc(-c4cccc(C)n4)cc3Cl)c(=O)n(CCC3CCNCC3)c2n1 [compound 22, 6-(2-Chloro-4-(6-methylpyridin-2-yl)phenyl)-2-(methylamino)-8-(2-(piperidin-4-yl)ethyl)pyrido[2,3-d]pyrimidin-7(8H)-one]

ΔTm 29 (MYT1): -0.9 °C
Compound: Cc1cccc(-c2ccc(-c3cc4cnc(NCCCN5CCNCC5)nc4n(CCCCN)c3=O)c(Cl)c2)n1 [compound 29, 8-(4-Aminobutyl)-6-(2-chloro-4-(6-methylpyridin-2-yl)phenyl)-2-((3-(piperazin-1-yl)propyl)amino)pyrido[2,3-d]pyrimidin-7(8H)-one]
